Laboratory results as given in patent US11660342B2, “Method for increasing permeability of blood-brain barrier” (POSTECH Research and Business Development Foundation, priority 2020, dated 2023).

Experiments:
[1] = Ultrasound-responsive NO release, real-time NO analysis; type: physicochemical; conditions: FIG. 5
Method: Subsequently, ultrasound-responsive NO release of the nanogenerator was monitored under physiological conditions (DPBS, pH 7.4, 37° C.). When ultrasound was absent, only a small overall amount (1.53 nmol/mg) of NO was released.

[2] = Behaviour in water (aggregation, solubility); type: physicochemical

Compound: CCC(C)N(N=O)c1ccc(N(N=O)C(C)CC)cc1 (centres unmarked) [BNN6, N,N′-di-sec-butyl-N,N′-dinitroso-1,4-phenylenediamine]
- ultrasound-responsive nitric oxide release behavior [1]: complete NO-releasability
- water solubility [2]: water-insoluble
